Source: a melting point compilation (Tetko et al.; mined from patent text by program, amines drawn as free bases though some values may be those of a salt)

Compound `CN(C)c1cccc(-c2cccc(-c3ccnc4c(C(=O)c5cccs5)cnn34)c2)c1` has a melting point of 167 to 169 °C.
Work on `Oc1cccc([C@H]2CCCC[C@@H]2NCCc2ccccc2)c1` (racemic) yielded a melting point of 164 to 165 °C.
`COC(=O)c1cccc2nc(SCCCCCCCCC(=O)Nc3c(SC)cc(C)nc3SC)oc12` showed a melting point of 126 to 128 °C.
Compound `CON(C)Cc1nc2c(N)nc(C)c(C)c2n1CC(C)C` has a melting point of 132 to 134 °C.
`CCC(C)(C)NCCC(C(=O)O)C(=O)c1ccc(Cl)cc1Cl` (stereo not drawn) showed a melting point of 124 to 126 °C.
In the case of `COc1ccc2ncc(CC(N)C(=O)O)cc2c1` (stereo not drawn), the melting point was 246 to 247 °C.
For `CC(C)CSc1cc(C(=O)O)cc(N)c1Oc1ccccc1`, the melting point was 148 to 150 °C.
`O=C(CCBr)NCC(=O)c1ccccc1` gave a melting point of 114 °C.
Work on `CCOC(=O)C1CCC(c2ccccc2)n2c(=O)n(CCl)c(=O)n21` (stereo not drawn) yielded a melting point of 104 to 106 °C.
`C=C1CSC2C(NC(=O)Cc3ccccc3)C(=O)N2C1C(=O)OC(c1ccccc1)c1ccccc1` (stereo not drawn) gave a melting point of 144 to 147 °C.
In the case of `CN(C)c1cccc(C(=O)Nc2ccc3ccc(Oc4ccccc4)nc3n2)c1`, the melting point was 120 °C.
`CCOCc1nc2c(N)nc3cc(Br)cnc3c2n1CC(C)(C)F` showed a melting point of 221 to 222 °C.
For `CC1=Cc2cc(-c3nnn[nH]3)ccc2OC1(C)C`, the melting point was 179 to 181 °C.
In the case of `COC(=O)[C@H](O)[C@@H](NC(=O)OC(C)(C)C)c1ccc(C#N)cc1`, the melting point was 250 °C.
In the case of `CC(C)(C)O[C@@H]1C[C@H]2C(=O)O[C@H](C(Cl)(Cl)Cl)N2C1`, the melting point was 147 °C.
Compound `CC(=O)NCC1CN(c2ccc(N3CCN(c4nc5ccc(F)cc5o4)CC3)c(F)c2)C(=O)O1` (stereo not drawn) has a melting point of 233 to 234 °C.
In the case of `COc1cc2c(c3c1OC(C)(C)C3)C(c1cccc(C(=O)NCC(N)=O)c1)=NC(C)(C)C2`, the melting point was 141 to 142 °C.
`Cn1c(=O)c(-c2ccccc2Cl)cc2cnc(NC3C4CN(Cc5ccccc5)CC43)nc21` (stereo not drawn) gave a melting point of 92 to 94 °C.
`CCOC(=O)C1=C(C)NC(C)=C(C(=O)OC)C1c1cc([N+](=O)[O-])ccc1Cl` (stereo not drawn) gave a melting point of 163 to 164 °C.
Compound `CC(C)CCCOc1nc(N)c([N+](=O)[O-])cc1Cl` has a melting point of 53 to 54 °C.
`O=c1c2cnc3ccccc3c2on1-c1ccccc1` showed a melting point of 163 °C.
For `COc1cn(-c2ccc(N(N)C(=O)OC(C)(C)C)cc2F)nc(-c2ccnn2-c2ccccc2)c1=O`, the melting point was 163 to 165 °C.
Compound `CN(C)c1nc2sc3c(NCCc4c[nH]cn4)ncnc3c2c2c1CCC2(C)C` has a melting point of 261 to 262 °C.
`COc1ccc(-c2nc(S(=O)(=O)c3nccs3)[nH]c2-c2ccc(OC)cc2)cc1` gave a melting point of 219 °C.
For `O=C(Nc1ccccc1)NC1CCN2CCc3ccccc3C2C1` (stereo not drawn), the melting point was 210 °C.
For `COc1ccc(C2CCN(c3c(C)c(C)c4c(c3C)C(O)(c3ccccc3)C(C)(C)O4)CC2)cc1OC` (stereo not drawn), the melting point was 143 to 145 °C.
With `CC(=O)Oc1ccccc1-c1ccc(=O)[nH]n1` the melting point was 181 to 184 °C.
In the case of `N#CNC(=NC1CCN(Cc2ccccc2)CC1)NC1Cc2ccccc2C1`, the melting point was 138 to 140 °C.
With `OCC1OC(n2cnc3c(NCCC(c4ccccc4)c4ccccc4)ncnc32)C(O)C1O` (stereo not drawn) the melting point was 103 to 118 °C.
With `C=C(Br)Cc1cc2c(C)cc(=O)oc2c(C)c1O` the melting point was 154 to 161 °C.
Compound `CN(C)CCNc1ccc(NCCN(C)C)c2c1C(=O)c1c(O)ccc(O)c1C2=O` has a melting point of 236 to 238 °C.
With `COc1cc(C=O)c(Br)c(OC)c1OC` the melting point was 69 °C.
For `O=C(c1ccccc1)c1c[nH]c(=O)[nH]1`, the melting point was 329 to 330 °C.
For `Cc1cc(N)c(Cl)c(C)n1`, the melting point was 86 °C.
Work on `CCOC(=O)N1CCC(=C2c3ccc(Cl)cc3CCc3c(On4nnc5ccccc54)ccnc32)CC1` yielded a melting point of 182 to 184 °C.
In the case of `CNC1Oc2cc(Cl)cc(-c3ccc(Cl)cc3C)c2O1` (stereo not drawn), the melting point was over 250 °C.
With `COC(=O)C(CC(C)C)NC(=O)c1cc([N+](=O)[O-])cc([N+](=O)[O-])c1` (stereo not drawn) the melting point was 143 to 145 °C.
Work on `COc1ccc2ccccc2c1C1C(CC(=O)O)CC(=O)N1c1ccccc1` (stereo not drawn) yielded a melting point of 198 to 203 °C.
`O=C(O)c1cccc(-c2ccc(OC[C@H](O)CCc3cccnc3)cc2)c1` showed a melting point of 165 to 168 °C.
Compound `CC(C)NCC(O)COc1ccc(CCOCC2CCC2)cc1` (stereo not drawn) has a melting point of 62 to 63 °C.
With `COP1(=S)OCc2cc(C)cnc2O1` (stereo not drawn) the melting point was 74 to 75 °C.
For `CC12CCC3C(CCC4CC(O[Si](c5ccccc5)(c5ccccc5)C(C)(C)C)CCC43C)C1CCC2C=C(Br)Br` (stereo not drawn), the melting point was 69 to 71 °C.
For `CC(C)(CO)n1c(Cc2ccccc2)nc2c(Cl)nc3ccccc3c21`, the melting point was 262 to 266 °C.
In the case of `COC(=O)Nc1cccc(C)c1CNc1cccn2c(C)c(C)nc12`, the melting point was 136 to 138 °C.
With `CN1C(CO)=Cc2cc(S(N)(=O)=O)sc2S1(=O)=O` the melting point was 144 to 146 °C.
`O=C(O)c1ccn(-c2ccc(F)cc2)c1` showed a melting point of 204 to 205 °C.
`COC(=O)CCNCC1CC2c3cccc4[nH]cc(c34)CC2N(C)C1` (stereo not drawn) showed a melting point of 130 to 132 °C.
In the case of `O=S(=O)(c1ccccc1)n1ccc2c(OCCCl)cccc21`, the melting point was 85 to 87 °C.
For `O=c1c2c(N3CCNCC3)cc(Cl)cc2n(Cc2ccccc2)c(=O)n1Cc1ccccc1Cl`, the melting point was 120 to 125 °C.
`CSc1cnc2cc(-c3ccccc3Cl)sc2c1O` gave a melting point of 270 to 273 °C.
For `COc1ccc2c(c1)C(=O)N(c1ccc3cccnc3c1)C2`, the melting point was 220 to 223 °C.
In the case of `COc1ccc2c(C3NCCc4ccccc43)c(O)ccc2c1` (stereo not drawn), the melting point was 148 to 151 °C.
`O=C(Nc1ccc(C(=O)O)cc1)OCc1cn(-c2cc3cc(C(=O)O)c(=O)[nH]c3cc2[N+](=O)[O-])cn1` gave a melting point of over 300 °C.
For `Cn1c(=O)cc(-c2cccc(Cl)c2)c2cc(C(=O)c3ccc([N+](=O)[O-])cc3)ccc21`, the melting point was 174 °C.
`COc1ccc(-c2[nH]c(=O)c3cc(OC)ccc3c2N2CCOCC2)cc1` gave a melting point of 139 °C.
For `C[C@@H](C(O)=S)c1cc(C(C)(C)C)c(O)c(C(C)(C)C)c1`, the melting point was 111 to 112 °C.
`COCOc1nn(-c2ccccc2)cc1/C=C/c1csc(-c2ccccc2C(=O)OC)n1` showed a melting point of 134 to 135 °C.
`CCCc1c(O)ccc2ccc(OCC(=O)OC)cc12` showed a melting point of 122 to 124 °C.
Work on `Clc1ccc2c(Nc3ccc(N4CCOCC4)c(CN4CCCC4)c3)ccnc2c1` yielded a melting point of 187 to 188 °C.
Work on `COCN(C(=O)Nc1ccc(Cl)cc1)C(=O)c1c(Cl)cccc1Cl` yielded a melting point of 122 °C.
Work on `Cn1c(C#N)ccc1[N+](=O)[O-]` yielded a melting point of 86 to 87 °C.
Work on `COc1ccc2c(Cc3nc4c(F)c(F)cc(F)c4s3)cn(CC(=O)O)c2c1` yielded a melting point of 118 to 120 °C.
`Nc1ncccc1OCc1c(F)cc(F)cc1F` showed a melting point of 122 to 124 °C.
For `NNc1ccnc2c(NC(=O)c3c(Cl)cccc3Cl)cccc12`, the melting point was 204 to 206 °C.
`CCCCc1nc(Cl)c(CO)n1Cc1ccc(-c2ccccc2-c2n[nH]c(=O)o2)cc1` showed a melting point of 163 to 164 °C.
Compound `CC1CC2C3=C(C(O)CC2(C)C1C(=O)CO)C1(C)C=CC(=O)C=C1C(F)C3` (stereo not drawn) has a melting point of 173 °C.
With `c1ccc2c(c1)C1CCC2c2c(OCC3CO3)cccc21` (stereo not drawn) the melting point was 127 to 130 °C.
Work on `c1cnc2c(c1)cc(-c1nnn[nH]1)c1nnnn12` yielded a melting point of 280 to 282 °C.
Work on `Cc1ccc2[nH]c(=O)c(-c3ccccc3)cc2c1` yielded a melting point of 212 to 213 °C.
For `COc1ccc(C(C)(O)c2sc(C)nc2C)cc1` (stereo not drawn), the melting point was 114 to 116 °C.
For `NC(=O)NCNC(N)=O`, the melting point was over 270 °C.
`O=C(CN1CCC(Cc2ccc(F)cc2)CC1)Nc1ccc2c(c1)CC(=O)N2` showed a melting point of 178 to 180 °C.
In the case of `CCOC(=O)C(Cc1c[nH]c2ccccc12)(NC=O)C(=O)OCC`, the melting point was 179 to 180 °C.
Compound `CCOC(=O)C1=C(C)NC(SCc2ccc(OC)cc2)=NC1c1cccc(Cl)c1Cl` (stereo not drawn) has a melting point of 134 to 135 °C.
For `Cc1nc(NC(=O)c2cccc(C#N)c2)sc1C(=O)NCc1ccccc1`, the melting point was 207 to 208 °C.
For `CC1CC(=O)NN=C1c1ccc(N=Cc2ccccc2O)cc1` (stereo not drawn), the melting point was 207 to 209 °C.
In the case of `Cc1ncc([N+](=O)[O-])n1CCOC(=O)Cc1ccccc1Nc1c(Cl)cccc1Cl`, the melting point was 122 to 124 °C.
`CC(C)[C@H](NC(=O)OCc1ccccn1)C(=O)N[C@@H](Cc1ccccc1)C[C@H](O)[C@H](Cc1ccccc1)NC(=O)[C@@H](NC(=O)OCc1ccccn1)C(C)C` gave a melting point of 220 to 222 °C.
In the case of `O=[N+]([O-])c1cccc(OCc2nc3ccccc3s2)c1`, the melting point was 156 to 157 °C.
In the case of `C[C@@H](n1cnc2c(Br)cc(Br)cc2c1=O)[C@](O)(Cn1cncn1)c1ccc(F)cc1F`, the melting point was 134 to 135 °C.
With `CC(=O)OCC1=NC(NC(=O)Nc2cccc(C)c2)C(=O)N(CC(=O)N2CCCCCCC2)c2c(C)cccc21` (stereo not drawn) the melting point was 112 to 114 °C.
Compound `Cc1cccc2c1N(Cc1c[nH]cn1)C(=O)C(NC(=O)Nc1cccc(-c3nnn[nH]3)c1)N=C2C1CCCCC1` (stereo not drawn) has a melting point of 168 to 179 °C.
`Cc1oc2c(C=Cc3c(Cl)cccc3Cl)cccc2c1C` gave a melting point of 93 to 94 °C.
`COC(=O)CCCC(=O)c1ccc(OCCCC/C=C/c2ccc(OC)cc2)c(O)c1` gave a melting point of 78 to 80 °C.
Compound `CCN(CC)Cc1nc2cc(OC)c(OC)cc2c(-c2ccc(OC)c(OC)c2)c1Cl` has a melting point of 146 to 148 °C.
Compound `CCOC(=O)C1=C(C=O)NC(C=O)=C(C(=O)OCC)C1c1ccccc1Cl` has a melting point of 85 to 86 °C.
`Cc1ccc2c(c1)C(C=O)c1ccccc1C2C=O` (stereo not drawn) showed a melting point of 125 to 126 °C.
`O=C1c2cccc(NCCc3ccc(O)cc3)c2C(=O)c2c(NCCc3ccc(O)cc3)cccc21` gave a melting point of 181 to 182 °C.
Work on `CC(C)c1ccc(NC(=O)N2CCc3cc(S(=O)(=O)N4CCN(c5cccc(Cl)c5)CC4)ccc32)cc1` yielded a melting point of 182 °C.
With `CC(C)Cn1c(CNC(=O)OC(C)(C)C)c(-c2ccccc2)c2cc(-c3nc(C(=O)O)cs3)ccc2c1=O` the melting point was 213 to 214 °C.
Work on `N#Cc1ccc(N(c2ccccc2)n2ccnc2)cc1` yielded a melting point of 162 °C.
With `N#CC1c2ccccc2-c2ccccc21` the melting point was 152 to 154 °C.
In the case of `CN(C(=O)N(C)c1ccc(C(=O)O)cc1)c1ccc(C(=O)O)cc1`, the melting point was 291 to 292 °C.
Compound `CCC(CC)N(Cc1ccc(C(=O)OC)cn1)S(=O)(=O)c1ccc(F)cc1` has a melting point of 117 to 119 °C.
`CCc1c(C(=O)c2cc(C)cc(C#N)c2)[nH]c(=O)[nH]c1=O` gave a melting point of 253 to 254 °C.
In the case of `O=C(Nc1nccs1)c1nc(-c2ccc(CN3CCOCC3)cc2)[nH]c1-c1ccc(Cl)cc1`, the melting point was 253 to 255 °C.
Compound `O=C(O)c1ccccc1Nc1ccc(Cl)cc1[N+](=O)[O-]` has a melting point of 235 to 247 °C.
For `O=S(=O)(CC=C(c1ccccc1)c1ccccc1)c1ccccc1`, the melting point was 106 °C.
